# Key:
# Assay in all cases: Post-emergent control, foliage spray
# Type in all cases: in vivo
# Settings in all cases: about two weeks
# Cotton = test system: Cotton
# Procedure: (§1) An aqueous composition containing 2-(m-bromophenyl)- 2-(2,2,2-trichloroethyl)oxirane was prepared as described in Example 32. Separate portions of this composition were thereafter dispersed in a further quantity of water to prepare aqueous spray compositions containing 250, 500, 1000, 2000 and 4000 parts, respectively of the compound per million parts by weight of ultimate treating composition. These compositions were applied as foliage sprays to various grass and broadleaf plant species, the plants being of two to four inches in height and growing in seed beds. The treatments were carried out with conventional spray equipment, the plants being sprayed to the point of run-off. Similar beds of the plant species were left untreated to serve as checks. After about two weeks, the beds were examined to ascertain what control of the growth of plants had been obtained. The plant species employed, together with the percent control obtained at the employed dosage rate of the composition is set forth in the following Table V.
# Barnyard Grass = test system: Barnyard Grass
# Procedure: as §1
# Yellow Foxtail = test system: Yellow Foxtail
# Procedure: as §1
# Corn = test system: Corn
# Procedure: as §1
# Wild Oats = test system: Wild Oats
# Procedure: as §1
# Pinto Beans = test system: Pinto Beans
# Procedure: as §1
smiles,measurement,setting,value
"ClC(Cl)(Cl)CC1(c2cccc(Br)c2)CO1 (stereo not drawn) [Example 3, 2-(m-bromophenyl)-2-(2,2,2-trichloroethyl)oxirane]",Percent Post-Emergent Control of Seed Germination,Cotton; 250 parts per million,0%
same,Percent Post-Emergent Control of Seed Germination,Cotton; 500 parts per million,0%
same,Percent Post-Emergent Control of Seed Germination,Cotton; 1000 parts per million,50%
same,Percent Post-Emergent Control of Seed Germination,Cotton; 2000 parts per million,50%
same,Percent Post-Emergent Control of Seed Germination,Cotton; 4000 parts per million,65%
same,Percent Post-Emergent Control of Seed Germination,Barnyard Grass; 250 parts per million,95%
same,Percent Post-Emergent Control of Seed Germination,Barnyard Grass; 500 parts per million,95%
same,Percent Post-Emergent Control of Seed Germination,Barnyard Grass; 1000 parts per million,95%
same,Percent Post-Emergent Control of Seed Germination,Barnyard Grass; 2000 parts per million,95%
same,Percent Post-Emergent Control of Seed Germination,Barnyard Grass; 4000 parts per million,95%
same,Percent Post-Emergent Control of Seed Germination,Yellow Foxtail; 250 parts per million,40%
same,Percent Post-Emergent Control of Seed Germination,Yellow Foxtail; 500 parts per million,95%
same,Percent Post-Emergent Control of Seed Germination,Yellow Foxtail; 1000 parts per million,95%
same,Percent Post-Emergent Control of Seed Germination,Yellow Foxtail; 2000 parts per million,95%
same,Percent Post-Emergent Control of Seed Germination,Yellow Foxtail; 4000 parts per million,95%
same,Percent Post-Emergent Control of Seed Germination,Corn; 250 parts per million,0%
same,Percent Post-Emergent Control of Seed Germination,Corn; 500 parts per million,30%
same,Percent Post-Emergent Control of Seed Germination,Corn; 1000 parts per million,50%
same,Percent Post-Emergent Control of Seed Germination,Corn; 2000 parts per million,95%
same,Percent Post-Emergent Control of Seed Germination,Corn; 4000 parts per million,95%
same,Percent Post-Emergent Control of Seed Germination,Wild Oats; 250 parts per million,50%
same,Percent Post-Emergent Control of Seed Germination,Wild Oats; 500 parts per million,70%
same,Percent Post-Emergent Control of Seed Germination,Wild Oats; 1000 parts per million,85%
same,Percent Post-Emergent Control of Seed Germination,Wild Oats; 2000 parts per million,85%
same,Percent Post-Emergent Control of Seed Germination,Wild Oats; 4000 parts per million,95%
same,Percent Post-Emergent Control of Seed Germination,Pinto Beans; 250 parts per million,50%
same,Percent Post-Emergent Control of Seed Germination,Pinto Beans; 500 parts per million,50%
same,Percent Post-Emergent Control of Seed Germination,Pinto Beans; 1000 parts per million,50%
same,Percent Post-Emergent Control of Seed Germination,Pinto Beans; 2000 parts per million,75%
same,Percent Post-Emergent Control of Seed Germination,Pinto Beans; 4000 parts per million,75%
